Source: US20260317272A1, “USE OF STROBILURIN TYPE COMPOUNDS FOR COMBATING PHYTOPATHOGENIC FUNGI CONTAINING AN AMINO ACID SUBSTITION F129L IN THE MITOCHONDRIAL CYTOCHROME B PROTEIN CONFERRING RESISTANCE TO QO INHIBITORS XVI” (priority 2023, published 2026)

Legend:
Phakopsora pachyrhizi [1] = assay: Use Example 4: protective control of soybean rust on soybeans (PHAKPA P6); assay type: in vivo; details: 16 ppm, six days before inoculation, F129L strain, up to 14 days, untreated 90
Description: (§1) The compound was dissolved in a mixture of acetone and/or dimethylsulfoxide and the wetting agent/emulsifier Wettol, which is based on ethoxylated alkylphenoles, in a ratio (volume) solvent-emulsifier of 99 to 1 to give a total volume of 5 ml. Subsequently, water was added to total volume of 100 ml. This stock solution was then diluted with the described solvent-emulsifier-water mixture to the final concentration given in the tables below.
Use Example 4. Protective Control of Soybean Rust on Soybeans Caused by Phakopsora pachyrhizi (PHAKPA P6)
Leaves of potted soybean seedlings were sprayed to run-off with the previously described spray solution, containing the concentration of active ingredient as described below. The plants were allowed to air-dry. The trial plants were cultivated for six days in a greenhouse chamber at 23-27° C. and a relative humidity between 60 and 80%. Then the plants were inoculated with spores of Phakopsora pachyrhizi. The strain used contains the amino acid substitution F129L in the mitochondrial cytochrome b protein conferring resistance to Qo inhibitors. To ensure the success the artificial inoculation, the plants were transferred to a humid chamber with a relative humidity of about 95% and 23 to 27° C. for 24 hr. The trial plants were cultivated for up to 14 days in a greenhouse chamber at 23 to 27° C. and a relative humidity between 60 and 80%. The extent of fungal attack on the leaves was visually assessed as % diseased leaf area, the disease level of untreated controls was usually higher than 85%.

Phakopsora pachyrhizi [2] = assay: Use Example 2: curative control of soybean rust on soybeans (PHAKPA K2); assay type: in vivo; details: 16 ppm, F129L strain, up to 14 days, untreated 90
Description: as §1
Use Example 2. Curative Control of Soybean Rust on Soybeans Caused by Phakopsora pachyrhizi (PHAKPA K2)
Leaves of potted soybean seedlings were inoculated with spores of Phakopsora pachyrhizi. The strain used contains the amino acid substitution F129L in the mitochondrial cytochrome b protein conferring resistance to Qo inhibitors. To ensure the success of the artificial inoculation, the plants were transferred to a humid chamber with a relative humidity of about 95% and 20 to 24° C. for 24 h. The next day the plants were cultivated for 1 day in a greenhouse chamber at 23-27° C. and a relative humidity between 60 and 80%. Then the plants were sprayed to run-off with the previously described spray solution, containing the concentration of active ingredient or their mixture as described below. The plants were allowed to air-dry. Then the trial plants were cultivated up to 14 days in a greenhouse chamber at 23-27° C. and a relative humidity between 60 and 80%. The extent of fungal attack on the leaves was visually assessed as % diseased leaf area.

Phakopsora pachyrhizi [3] = assay: Use Example 5: protective control of soybean rust on soybeans (PHAKPA P9); assay type: in vivo; details: 16 ppm, 9 days before inoculation, F129L strain, up to 14 days, untreated 85
Description: as §1
Use Example 5. Protective Control of Soybean Rust on Soybeans Caused by Phakopsora pachyrhizi (PHAKPA P9)
Leaves of potted soybean seedlings were sprayed to run-off with the previously described spray solution, containing the concentration of active ingredient or their mixture as described below. The plants were allowed to air-dry. The trial plants were cultivated for 9 days in a greenhouse chamber at 23-27° C. and a relative humidity between 60 and 80%. Then the plants were inoculated with spores of Phakopsora pachyrhizi. The strain used contains the amino acid substitution F129L in the mitochondrial cytochrome b protein conferring resistance to Qo inhibitors. To ensure the success of the artificial inoculation, the plants were transferred to a humid chamber with a relative humidity of about 95% and 20 to 24° C. for 24 h. The trial plants were cultivated for up to 14 days in a greenhouse chamber at 23-27° C. and a relative humidity between 60 and 80%. The extent of fungal attack on the leaves was visually assessed as % diseased leaf area.

Pyrenophora teres = assay: Use Example 12: control of net blotch on barley (PYRNTE P4); assay type: in vivo, Pyrenophora (syn. Drechslera) teres; details: F129L strain, inoculated seven days later, 16 ppm, untreated 80%
Description: as §1
Use Example 12. Control of Net Blotch on Barley Caused by Pyrenophora teres (PYRNTE P4)
The first fully developed leaves of potted barley plants were sprayed to run-off previously described spray solution, containing the concentration of active ingredient or their mixture mentioned in the table below. Seven days later the treated plants were inoculated with an aqueous spore suspension of Pyrenophora (syn. Drechslera) teres. The strain used contains the amino acid substitution F129L in the mitochondrial cytochrome b protein conferring resistance to Qo inhibitors. After up to 19 days of cultivation at 20-24° C. and a relative humidity close to 70%, the extent of fungal attack on the leaves was visually assessed as % diseased leaf area.

Puccinia triticina = assay: Use Example 7: preventative control of brown rust on wheat (PUCCRT P10); assay type: in vivo, Puccinia triticina (syn. P. recondita); details: 16 ppm, ten days before inoculation, 6 days, untreated 80
Description: as §1
Use Example 7. Preventative Control of Brown Rust on Wheat Caused by Puccinia triticina (Syn. P. recondita) (PUCCRT P10)
The first two developed leaves of potted wheat seedling were sprayed to run-off with previously described spray solution, containing the concentration of active ingredient or their mixture as described below. Ten days later the plants were inoculated with spores of Puccinia triticina. To ensure the success of the artificial inoculation, the plants were transferred to a humid chamber without light and a relative humidity of 95 to 99% and 20 to 24° C. for 24 h. Then the trial plants were cultivated for 6 days in a greenhouse chamber at 20-24° C. and a relative humidity between 65 and 70%. The extent of fungal attack on the leaves was visually assessed as % diseased leaf area.

Puccinia striiformis = assay: Use Example 9: curative control of wheat stripe rust on wheat (PUCCST K4); assay type: in vivo; details: 16 ppm, untreated 90%
Description: as §1
Use Example 9. Curative Control of Wheat Stripe Rust on Wheat Caused by Puccinia striiformis (PUCCST K4)
The first two developed leaves of potted wheat seedling were inoculated with spores of Puccinia striiformis. To ensure the success of the artificial inoculation, the plants were transferred to a chamber without light and a temperature of 5° C. for 24 h. Then the trial plants were cultivated for 3 days in a greenhouse chamber at 16° C. and a relative humidity of minimum 75%. The plants were sprayed to run-off with the previously described spray solution, containing the concentration of active ingredient or their mixture as described below. The plants were allowed to air-dry. Then the trial plants were cultivated for up to 12 days in a greenhouse chamber at 16° C. and a relative humidity of minimum 75%. The extent of fungal attack on the leaves was visually assessed as % diseased leaf area.

Compound | Diseased leaf area (%) (Phakopsora pachyrhizi [1]) | Diseased leaf area (%) (Phakopsora pachyrhizi [2]) | Diseased leaf area (%) (Phakopsora pachyrhizi [3]) | Diseased leaf area (%) (Pyrenophora teres) | Diseased leaf area (%) (Puccinia triticina) | Diseased leaf area (%) (Puccinia striiformis)
COC/C(=N\OCc1c(C)cccc1/C(=N\OC)C(=O)OC)c1c(F)cc(F)cc1F [Compound 2, methyl (2E)-2-methoxyimino-2-[2-[[(Z)-[2-methoxy-1-(2,4,6-trifluorophenyl)ethylidene]amino]oxymethyl]-3-methyl-phenyl]acetate] | 7 | 2 | 2 | 13 |  | 
CNC(=O)/C(=N/OC)c1cccc(C)c1CO/N=C(\COC)c1c(F)cc(OC)cc1F [Compound 7, (2E)-2-[2-[[(Z)-[1-(2,6-difluoro-4-methoxy-phenyl)-2-methoxy-ethylidene]amino]oxymethyl]-3-methyl-phenyl]-2-methoxyimino-N-methyl-acetamide] | 1 | 4 | 1 | 6 | 4 | 0
CO/C=C(/C(=O)OC)c1cccc(C)c1CO/N=C(\COC)c1ccc(F)cc1Cl [Compound 3] | 4 |  | 0 |  |  | 7
CO/C=C(/C(=O)OC)c1cccc(C)c1CO/N=C(\COC)c1ccc(Cl)cc1Cl [Compound 6, methyl (E)-2-[2-[[(Z)-[1-(2,4-dichlorophenyl)-2-methoxy-ethylidene]amino]oxymethyl]-3-methyl-phenyl]-3-methoxy-prop-2-enoate] | 9 |  | 9 |  | 5 | 
CO/C=C(/C(=O)OC)c1cccc(C)c1CO/N=C(\COC)c1c(F)cc(F)cc1F [Compound 4, methyl (E)-3-methoxy-2-[2-[[(Z)-[2-methoxy-1-(2,4,6-trifluorophenyl)ethylidene]amino]oxymethyl]-3-methyl-phenyl]prop-2-enoate] | 0 | 5 | 0 | 4 | 12 | 15
CNC(=O)/C(=N/OC)c1cccc(C)c1CO/N=C(\COC)c1ccc(F)c(F)c1 [Compound 5, (2E)-2-[2-[[(Z)-[1-(3,4-difluorophenyl)-2-methoxy-ethylidene]amino]oxymethyl]-3-methylphenyl]-2-methoxyimino-N-methyl-acetamide] | 0 | 6 | 1 | 4 | 12 | 1
CNC(=O)/C(=N/OC)c1cccc(C)c1CO/N=C(\COC)c1c(F)cc(F)cc1F [Compound 1, (2E)-2-methoxyimino-2-[2-[[(Z)-[2-methoxy-1-(2,4,6-trifluorophenyl)ethylidene]amino]oxymethyl]-3-methyl-phenyl]-N-methyl-acetamide] | 0 | 0 | 0 | 10 |  | 0
